Experimental data from PubChem BioAssay (NCI).
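The compound was tested at five concentrations on cells cultured in 96-well plates, with a 48-hour exposure period. GI50: concentration for 50% inhibition of growth. Definition used: TGI = concentration required for complete inhibition of growth.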

How the values were obtained:
Assay in all cases: NCI anticancer screen, dose series, 48 h
[1] = test system: K-562 leukemia
[2] = test system: SK-MEL-5 melanoma
[3] = test system: LXFL 529 NSCLC
[4] = test system: A498 renal
[5] = test system: DMS 273 small cell lung
[6] = test system: TK-10 renal
[7] = test system: CCRF-CEM leukemia
[8] = test system: SR leukemia
[9] = test system: OVCAR-3 ovarian
[10] = test system: MDA-MB-435

Compound	TGI [1] [µM]	TGI [2] [µM]	TGI [3] [µM]	TGI [4] [µM]	TGI [5] [µM]	TGI [6] [µM]	TGI [7] [µM]	TGI [8] [µM]	TGI [9] [µM]	GI50 [1] [µM]	GI50 [2] [µM]	GI50 [3] [µM]	GI50 [4] [µM]	GI50 [5] [µM]	GI50 [6] [µM]	GI50 [7] [µM]	GI50 [9] [µM]	TGI [10] [µM]	GI50 [10] [µM]
CC(C)=CC1(C)/C(=N\O)C(C)(CC(C)C)C(=O)N1O (centres undefined)	> 100	> 100	> 100	> 100	> 100	> 100	> 100	> 100	> 100	–	–	–	–	–	–	–	–	–	–
Cc1c(-c2cc(-c3ccccc3)n[nH]c2=O)c2ccccc2n1C	> 100	> 100	> 100	> 100	> 100	> 100	> 100	> 100	> 100	–	–	–	–	–	–	–	–	–	–
CCOC(=O)C1=C(Nc2cccc3ccccc23)OCC1=O	> 100	> 100	> 100	> 100	> 100	–	> 100	> 100	> 100	–	–	–	–	–	–	–	–	–	–
NC(=S)N/N=C1/C(=O)N(c2ccccc2)C(=O)C1C(=O)Nc1ccccc1 (centres undefined)	–	> 100	> 100	> 100	> 100	> 100	–	> 100	> 100	–	–	–	–	–	–	–	–	–	–
CN(C)C(=S)/N=C(\N)N(C)C	> 100	> 100	> 100	> 100	> 100	> 100	> 100	> 100	–	–	–	–	–	–	–	–	–	–	–
Nc1ncnc2c1N=CN(Oc1ccccc1)N2	> 100	> 100	> 100	–	> 100	> 100	–	> 100	> 100	–	–	–	–	–	–	–	–	–	–
O=C(/C=C/c1ccco1)N1CCN(Cc2ccccc2)CC1	–	> 100	> 100	> 100	> 100	> 100	> 100	> 100	> 100	–	–	–	–	–	–	–	–	–	–
CNC(=O)NCCCCC(NC(=O)OCc1ccccc1)C(=O)OCc1ccccc1 (centres undefined)	> 100	> 100	> 100	> 100	> 100	52.6	38.5	61.4	32.1	–	–	–	–	–	–	–	–	–	–
NC(CCSCCF)C(=O)O (centres undefined)	> 100	–	> 100	> 100	> 100	> 100	> 100	> 100	> 100	–	–	–	–	–	–	–	–	–	–
Cc1cccc(/C=N/N=C(\N)NO)n1	> 100	> 100	53.1	> 100	> 100	> 100	> 100	> 100	> 100	–	–	–	–	–	–	–	–	–	–
CC(C(=O)c1ccc(O)cc1)C1(O)C(=O)Nc2c(Cl)cc(Cl)cc21 (centres undefined)	32.6	31.4	> 93.7	> 85.3	> 100	> 100	74.7	–	> 84.3	–	–	–	–	–	–	–	–	–	–
COC(=O)c1ccc(N/C=C(/C#N)c2ccsc2)cc1	> 100	–	37.5	15.7	37.4	30.7	> 100	> 100	23.1	–	–	–	–	–	–	–	–	–	–
COC(=O)CCC(=O)Nc1cc(C)ccc1C	> 100	> 100	> 100	> 100	> 100	> 100	> 100	–	> 100	–	–	–	–	–	–	–	–	–	–
C=CC(=O)OCCCS(=O)(=O)[O-].C=CC(=O)OCCCS(=O)(=O)[O-].NC1CCCCC1N.[Pt+4]	> 25	> 25	> 25	> 25	> 25	> 25	> 25	–	> 25	> 25	> 25	> 25	> 25	> 25	> 25	> 25	> 25	–	–
NC(=O)/C=C/c1c[nH]c2nccnc12	> 18	10.9	0.611	12.5	10.5	6.26	7.4	> 100	> 39.5	–	–	–	–	–	–	–	–	13.2	–
CCCCCCCCCCCc1cc(=O)c2c(O)cccc2o1	> 100	> 100	> 100	–	> 100	> 100	83.7	> 100	> 100	–	–	–	–	–	–	–	–	–	–
N#CC1=C(N)Oc2c(ccc3cccnc23)C1c1ccccc1 (centres undefined)	> 100	13.9	> 100	16.9	> 100	86.8	13.4	29	2.95	–	–	–	–	–	–	–	–	0.661	0.193
COc1ccccc1NC(=O)C1=C(C)NC(C)=C(C(=O)Nc2ccccc2OC)C1c1ccc(C2C(C(=O)Nc3ccccc3OC)=C(C)NC(C)=C2C(=O)Nc2ccccc2OC)cc1	13.2	8.14	5.09	15.5	8.67	16.2	5.71	9.93	6.08	–	–	–	–	–	–	–	–	–	–
COc1cc2ccnc(-c3n[nH]c4cc(OC)c(OC)cc34)c2cc1OC	> 100	> 100	> 100	> 100	> 100	> 100	> 100	> 100	> 100	–	–	–	–	–	–	–	–	–	–
